Experimental findings from patent US10827753B2, “Compositions and methods for controlling nematodes” (Monsanto Technology LLC, priority 2007, dated 2020) are described below.

One assay has as its system root knot nematode (RKN). The assay is described as follows: RKN greenhouse soil assay on cucumber plants. The class given is in vivo, Meloidogyne incognita. A digest of the protocol:
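Cucumber in sandy soil in pots drenched with 5 ml compound solution (acetone in 0.05% Triton X 100; 1 mg per four pots = 1 kg/ha), 7 days or 0 days before inoculation. Root knot nematode eggs applied ≥4 h after treatment; galling rated 14 days after inoculation, four replicates.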

For the next assay, the system named is root knot nematode. The assay can be described thus: Pre-plant incorporated (PPI) greenhouse test of root knot nematode on cucumber plants. The assay is classed as in vivo, Meloidogyne incognita. To be noted: for pest or weed control at 4000 g/ha / pest or weed control at 8000 g/ha / pest or weed control at 2000 g/ha: Meloidogyne incognita, read-out: percent control (galling reduction) relative to the control blank treatment. A digest of the protocol:
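Compound from acetone stock (4 mg in 4 ml), diluted into 0.05%×100 and mixed into sandy field-soil mix at 8, 4 or 2 kg/ha, equivalent to 2, 1 and 0.5 kg/ha drench. Cucumbers sown 0, 7 or 14 days after treatment, nematode eggs added one week later, harvest 14 days post-inoculation; 4 pots/treatment.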

The subject of a further assay is Meloidogyne incognita. The assay is described as follows: M. incognita miniaturized greenhouse assay on cucumber seedlings (root galling). The assay is classed as in vivo. More on the design: key to 1 ppm gall ratings / 1 ppm gall rating: mean of 3 gall ratings: 0=0-5%, 1=6-20%, 2=21-50%, 3=51-100% root galled. To be noted: for 8 ppm gall ratings: average of triplicate gall rating, scale 0-3 (% root mass galled). In short, it runs like this:
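Compound in acetone/Triton X100 stock (5 mg/mL) diluted into water with 0.015% Triton X100 and applied to sand-planted sprouted cucumber seedlings; inoculated with 500 M. incognita eggs two days after planting. Roots harvested 10–12 days later; galling scored 0–3 by % root mass galled, averaged over triplicates, plus visual root phytotoxicity rating.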

Setting [1] is: Acetone 1 mg/kg, standard 10% acetone in 0.05% Triton X 100 formulation.
[2] abbreviates: Radex 1 mg/kg, emulsifiable concentrate, 6.25% active ingredient by weight.
[3] abbreviates: fourteen day pre-plant incorporated, 2 kg/ha rate, test a.
Setting [4] is: fourteen day pre-plant incorporated, 4 kg/ha rate, test a.
The mark [5] stands for this setting: fourteen day pre-plant incorporated, 4 kg/ha rate, test b.
The mark [6] stands for this setting: fourteen day pre-plant incorporated, 8 ka/ha rate, test a.
The mark [7] stands for this setting: fourteen day pre-plant incorporated, 8 ka/ha rate, test b.
[8] abbreviates: 0 day treatment, 0.05 kg/ha, test a.
Setting [9] is: 0 day treatment, 0.1 kg/ha, test a.
The mark [10] stands for this setting: 0 day treatment, 0.25 kg/ha, test a.
Setting [11] is: 0 day treatment, 1 kg/ha, test b.
[12] abbreviates: 24 h, twenty one day pre-plant incorporated, 4 kg/ha rate.
[13] abbreviates: 24 h, twenty one day pre-plant incorporated, 8 ka/ha rate.

Where two headings read alike, the source gives them in different places. Marks after values point to notes of the source that are not given here.

For `CCOP(=O)(NC(C)C)Oc1ccc(SC)c(C)c1` (stereo not shown) [Fenamiphos, fenamiphos, reference compound], the entries for the “percent control (galling reduction) relative to the appropriate control blank treatment” value in the assay on root knot nematode (RKN) (setting [1]) and in the assay on root knot nematode (RKN) (setting [2]) were 98% and 99%, respectively. For the same compound, the “percent control (galling reduction) relative to the control blank treatment” value is reported as 88^a percent in the assay with root knot nematode (setting [3]); 99^a percent in the assay with root knot nematode (setting [4]); 100^b percent in the assay on root knot nematode (setting [5]); 100^a percent in the assay with root knot nematode (setting [6]); 100^b percent in the assay with root knot nematode (setting [7]); 96% with root knot nematode (seven day pre-plant incorporated, 4 kg/ha rate). The “percent control (galling reduction) relative to the control blank treatment” value in the assay on root knot nematode (seven day pre-plant incorporated, 8 ka/ha rate) was found to be 100%; with root knot nematode (twenty one day pre-plant incorporated, 4 kg/ha rate), 84%; in the assay with root knot nematode (twenty one day pre-plant incorporated, 8 ka/ha rate), 99%. Moreover, the “1 ppm gall ratings” value with Meloidogyne incognita (Table 1B test c) is recorded as 0^c, 0^d, 0^e (0=0-5%); in the assay with Meloidogyne incognita (Table 1B test d) it was 0^c, 0^d, 0^e (0=0-5%); with Meloidogyne incognita (Table 1B test e), 0^c, 0^d, 0^e (0=0-5%).

For `c1ccc(-c2noc(-c3cccs3)n2)cc1` [compound 1822], the “percent control (galling reduction) relative to the control blank treatment” value is reported as 7^a percent in the assay on root knot nematode (RKN) (setting [8]); 47^a percent in the assay with root knot nematode (RKN) (setting [9]); 60% in the assay on root knot nematode (RKN) (setting [10]); 64% in the assay with root knot nematode (RKN) (0 day treatment, 0.25 kg/ha, test b); 89% in the assay with root knot nematode (RKN) (0 day treatment, 1 kg/ha, test a); 81% with root knot nematode (RKN) (setting [11]). Also, the “percent control (galling reduction) relative to the control blank treatment” value came out at 85% in the assay on root knot nematode (RKN) (7 day treatment, 1 kg/ha, test a) and 75% with root knot nematode (RKN) (7 day treatment, 1 kg/ha, test b). The “percent control (galling reduction) relative to the appropriate control blank treatment” value was determined as 94% in the assay with root knot nematode (RKN) (setting [1]) and 98% with root knot nematode (RKN) (setting [2]). The pest or weed control at 4000 g/ha in the assay with root knot nematode (setting [12]) came to 82%; in the assay with root knot nematode (168 h, seven day pre-plant incorporated, 4 kg/ha rate), 99%; in the assay on root knot nematode (setting [4]), 97%. Further, the pest or weed control at 8000 g/ha in the assay with root knot nematode (setting [13]) turned out to be 95%; in the assay on root knot nematode (168 h, seven day pre-plant incorporated, 8 ka/ha rate), 99%; with root knot nematode (setting [6]) it was 100%. The pest or weed control at 2000 g/ha with root knot nematode (setting [3]) is 67%. Also, the “1 ppm gall ratings” value in the assay on Meloidogyne incognita (Table 1B test a) was 0.33; in the assay with Meloidogyne incognita (Table 1B test b), 0.67; with Meloidogyne incognita (Table 1B test c), 0.33; with Meloidogyne incognita (Table 1B test d) it was 0 (0=0-5%). The “1 ppm gall rating” value in the assay with Meloidogyne incognita (Table 1C test a) is 0 (0=0-5%); in the assay with Meloidogyne incognita (Table 1C test b), 0.33; with Meloidogyne incognita (Table 1D test a), 1.33^a. Also, in the assay on Meloidogyne incognita (Table 1D test a), the “8 ppm gall rating” value is on record as 0^a (0=0-5%). Moreover, in the assay on Meloidogyne incognita, the “8 ppm gall ratings” value is listed as 0 (0=0-5%).

As for `Brc1ccc(-c2cnc(-c3cccs3)o2)cc1` [compound 4776], the “percent control (galling reduction) relative to the control blank treatment” value with root knot nematode (RKN) (setting [11]) is recorded as “— 99^b percent”. In the assay with root knot nematode (setting [12]), the pest or weed control at 4000 g/ha was determined as 50%. Also, the pest or weed control at 8000 g/ha with root knot nematode (setting [13]) turned out to be 80%. The “1 ppm gall ratings” value in the assay on Meloidogyne incognita (Table 1B test a) was 1 (1=6-20%); in the assay with Meloidogyne incognita (Table 1B test b), 1 (1=6-20%); in the assay with Meloidogyne incognita (Table 1B test c), 0.33; in the assay on Meloidogyne incognita (Table 1B test d), 0.33. The “1 ppm gall rating” value with Meloidogyne incognita (Table 1C test a) is listed as 1 (1=6-20%); with Meloidogyne incognita (Table 1C test b), 0.33; with Meloidogyne incognita (Table 1C test c) it was 1 (1=6-20%); in the assay with Meloidogyne incognita (Table 1D test a), 0^a (0=0-5%). The “8 ppm gall rating” value in the assay on Meloidogyne incognita (Table 1D test a) is on record as 0^a (0=0-5%). For the same compound, the “8 ppm gall ratings” value in the assay with Meloidogyne incognita is reported as 0 (0=0-5%).

As to `Cc1cc(Cl)ccc1-c1noc(-c2ccco2)n1` [compound 5823], the “percent control (galling reduction) relative to the control blank treatment” value came to 53% in the assay with root knot nematode (RKN) (setting [8]); 38% in the assay on root knot nematode (RKN) (0 day treatment, 0.05 kg/ha, test c); 85% with root knot nematode (RKN) (setting [9]); 91% in the assay with root knot nematode (RKN) (0 day treatment, 0.1 kg/ha, test c); 95% with root knot nematode (RKN) (setting [10]); 98% in the assay on root knot nematode (RKN) (0 day treatment, 0.25 kg/ha, test c). The pest or weed control at 2000 g/ha in the assay with root knot nematode (setting [3]) was 85%. In addition, the pest or weed control at 4000 g/ha amounted to 98% with root knot nematode (setting [4]) and 94% with root knot nematode (setting [5]). Besides, the pest or weed control at 8000 g/ha in the assay with root knot nematode (setting [6]) and in the assay on root knot nematode (setting [7]) was 100% each time. In addition, the “1 ppm gall ratings” value in the assay on Meloidogyne incognita (Table 1B test a) worked out at 1.67; with Meloidogyne incognita (Table 1B test b), 0.33; with Meloidogyne incognita (Table 1B test e) it was 0.33.
